Assay results published in US20190287644A1, “Correlation Method To Identify Relevant Genes For Personalized Treatment Of Complex Disease” (Northeastern University, priority 2018, published 2019).

Legend:
[1] = tested on: Hybrid Mouse Diversity Panel (HMDP) strains; test: ISO-induced cardiac hypertrophy (total heart weight) in the Hybrid Mouse Diversity Panel; type: in vivo; conditions: across HMDP strains, three weeks after implantation of ISO pump (30 mg per kg per day, 21 days)
Procedure: 30 mg per kg body weight per day of Isoproterenol (ISO) was administered for 21 days in 8-10 week old female mice using ALZET osmotic mini-pumps, which were surgically implanted intraperitoneally. All animal experiments were conducted following guidelines established and approved by the University of California, Los Angeles Institutional Animal Care and Use Committee (IACUC) and housed in an IACUC-approved vivarium with daily monitoring by vivarium personnel.
As each mouse in a strain is genetically identical, several mice from the same strain were used for measuring the cardiac hypertrophic response to ISO treatment. […] Cardiac hypertrophy for a given strain was calculated as the increase in average total heart weight after ISO treatment compared to control mice.
One can also perform an entirely novel type of differential gene expression analysis owing to the fact that, in addition to control and treated subjects belonging to the same strain having the same genetic background, the change of heart mass in response to ISO, i.e., the ratio m′i/mi of total heart mass before (mi) and after ISO treatment (m′i) for strain i, can be measured for all strains (i=1, 2, . . . , N) to assess the degree of hypertrophy among different strains. […]

[2] = tested on: neonatal rat ventricular myocytes (NRVMs); test: Cardiomyocyte cell cross-sectional area; type: cell-based; conditions: cells transfected with control siRNA, following ISO/PE treatment
Text: (§1) Right ventricular myocytes were isolated and cultured, as reported using 2-4 day old rats. Myocytes and fibroblasts were separated with Percoll density gradient. For knockdown experiments cells were transfected with Hes1 siRNA using lipofectamine RNAimax (life technologies).
Quantification of cardiomyocyte cell cross-sectional area was done following transfection with either control or Hes1 siRNA and a 48-hour treatment with control or isoproterenol or phenylepherine containing media. Images were taken on a Nikon Eclipse TE2000-U microscope. Images were analyzed using the Nikon Imagine System (NIS). 150 cells were used to compute the SEM.

Nppa and Nppb = test: Expression of hypertrophic markers Nppa and Nppb in neonatal rat ventricular myocytes (qPCR); type: cell-based; conditions: NRVMs transfected with control siRNA
Procedure: as §1
RNA isolation from cells was performed using Qiazol lysis reagent. cDNA synthesis was performed using the High Capacity Reverse Transcription cDNA Kit (Life Technologies). qPCR was performed using the LightCycler 480 (Roche).

| Compound | increase of heart mass [1] | cellular cross-sectional area [2] | increase of Nppa expression (Nppa and Nppb) | increase of Nppb expression (Nppa and Nppb) |
| --- | --- | --- | --- | --- |
| CC(C)NCC(O)c1ccc(O)c(O)c1 (stereo not shown) [ISO, isoproterenol] | ≤ 80% | doubled | 3.5 fold | 7.9 fold |
| CNC[C@H](O)c1cccc(O)c1 [PE, phenylephrine] |  | doubled | 11 fold | 13 fold |
